Laboratory results taken from US12195476B2, “Synthesis method of furoimidazopyridine compound, crystal form of furoimidazopyridine compound, and crystal form of salt thereof” (HANGZHOU HIGHLIGHTLL PHARMACEUTICAL CO., LTD, priority 2019, dated 2025).

Key:
[1] = target: T1, TYK2 (Homo sapiens, UniProt P29597); test: TYK2 biochemical test (33P-ATP filter binding kinase assay, Reaction Biology Corp); details: 2 hours at room temperature
T1 construct: purchased Reaction Biology Corp, Malvern, PA (contract test)
T1 sequence (P29597 whole entry): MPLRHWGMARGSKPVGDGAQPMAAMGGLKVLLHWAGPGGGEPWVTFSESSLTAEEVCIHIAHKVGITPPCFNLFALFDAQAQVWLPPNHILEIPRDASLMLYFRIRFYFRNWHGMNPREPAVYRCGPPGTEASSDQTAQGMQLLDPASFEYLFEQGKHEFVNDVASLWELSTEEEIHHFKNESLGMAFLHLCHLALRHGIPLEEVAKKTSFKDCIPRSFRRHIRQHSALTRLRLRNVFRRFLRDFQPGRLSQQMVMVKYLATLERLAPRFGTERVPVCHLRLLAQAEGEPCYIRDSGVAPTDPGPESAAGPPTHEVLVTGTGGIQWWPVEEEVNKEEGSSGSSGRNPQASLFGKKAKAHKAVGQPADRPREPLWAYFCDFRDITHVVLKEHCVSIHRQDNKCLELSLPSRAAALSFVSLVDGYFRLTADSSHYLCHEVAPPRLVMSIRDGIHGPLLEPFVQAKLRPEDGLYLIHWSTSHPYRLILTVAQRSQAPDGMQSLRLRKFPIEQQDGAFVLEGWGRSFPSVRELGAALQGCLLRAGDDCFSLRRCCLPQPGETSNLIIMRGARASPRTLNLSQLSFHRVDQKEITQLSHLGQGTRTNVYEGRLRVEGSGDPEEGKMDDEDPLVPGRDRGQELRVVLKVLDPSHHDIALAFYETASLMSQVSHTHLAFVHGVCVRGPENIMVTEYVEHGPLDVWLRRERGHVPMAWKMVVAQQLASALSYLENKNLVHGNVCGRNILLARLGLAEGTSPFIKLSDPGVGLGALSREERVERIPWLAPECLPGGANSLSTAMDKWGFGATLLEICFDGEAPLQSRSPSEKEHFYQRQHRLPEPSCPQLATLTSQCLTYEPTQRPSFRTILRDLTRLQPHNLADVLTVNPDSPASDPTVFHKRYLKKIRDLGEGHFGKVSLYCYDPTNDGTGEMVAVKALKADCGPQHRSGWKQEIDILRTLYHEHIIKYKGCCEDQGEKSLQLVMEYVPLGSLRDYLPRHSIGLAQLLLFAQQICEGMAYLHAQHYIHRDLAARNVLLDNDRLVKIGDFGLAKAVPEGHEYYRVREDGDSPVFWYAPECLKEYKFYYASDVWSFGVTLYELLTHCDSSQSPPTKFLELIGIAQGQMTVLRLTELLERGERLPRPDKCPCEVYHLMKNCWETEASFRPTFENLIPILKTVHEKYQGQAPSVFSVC
Procedure: An appropriate amount of a compound of formula I was weighed for TYK2 biochemical test.
The test was conducted by Reaction Biology Corp, Malvern, PA (Anastassiadis et al. Nat Biotechnol. 2011; 29(11):1039-45). The step is briefly described as follows.
Basic reaction buffer: 20 mM Hepes (pH 7.5), 10 mM MgCl2, 1 mM EGTA, 0.02% Brij35, 0.02 mg/ml BSA, 0.1 mM Na3VO4, 2 mM DTT and 1% DMSO. The required cofactor was added to each kinase reaction respectively.
• 1. Preparing the designated substrate in the newly prepared basic reaction buffer; • 2. Transferring the required cofactor to the above matrix solution; • 3. Transferring the designated kinase to the substrate solution and mixing well slightly; • 4. Transferring a compound of formula I in DMSO to the kinase reaction mixture with Acoustic technique (Echo550; nanoliter range), culturing for 20 minutes at room temperature; • 5. Introducing ^33P-ATP (specific activity: 10 μCi/μl) to the reaction mixture to trigger a reaction; • 6. Culturing at room temperature and conducting a kinase reaction for 2 hours; • 7. Plotting the reaction on P81 ion exchange paper; • 8. Testing the kinase activity with a filter binding assay.

[2] = target: JAK1 (Homo sapiens, UniProt P23458); details: result in words; cited from earlier work
JAK1, sequence (P23458 whole entry): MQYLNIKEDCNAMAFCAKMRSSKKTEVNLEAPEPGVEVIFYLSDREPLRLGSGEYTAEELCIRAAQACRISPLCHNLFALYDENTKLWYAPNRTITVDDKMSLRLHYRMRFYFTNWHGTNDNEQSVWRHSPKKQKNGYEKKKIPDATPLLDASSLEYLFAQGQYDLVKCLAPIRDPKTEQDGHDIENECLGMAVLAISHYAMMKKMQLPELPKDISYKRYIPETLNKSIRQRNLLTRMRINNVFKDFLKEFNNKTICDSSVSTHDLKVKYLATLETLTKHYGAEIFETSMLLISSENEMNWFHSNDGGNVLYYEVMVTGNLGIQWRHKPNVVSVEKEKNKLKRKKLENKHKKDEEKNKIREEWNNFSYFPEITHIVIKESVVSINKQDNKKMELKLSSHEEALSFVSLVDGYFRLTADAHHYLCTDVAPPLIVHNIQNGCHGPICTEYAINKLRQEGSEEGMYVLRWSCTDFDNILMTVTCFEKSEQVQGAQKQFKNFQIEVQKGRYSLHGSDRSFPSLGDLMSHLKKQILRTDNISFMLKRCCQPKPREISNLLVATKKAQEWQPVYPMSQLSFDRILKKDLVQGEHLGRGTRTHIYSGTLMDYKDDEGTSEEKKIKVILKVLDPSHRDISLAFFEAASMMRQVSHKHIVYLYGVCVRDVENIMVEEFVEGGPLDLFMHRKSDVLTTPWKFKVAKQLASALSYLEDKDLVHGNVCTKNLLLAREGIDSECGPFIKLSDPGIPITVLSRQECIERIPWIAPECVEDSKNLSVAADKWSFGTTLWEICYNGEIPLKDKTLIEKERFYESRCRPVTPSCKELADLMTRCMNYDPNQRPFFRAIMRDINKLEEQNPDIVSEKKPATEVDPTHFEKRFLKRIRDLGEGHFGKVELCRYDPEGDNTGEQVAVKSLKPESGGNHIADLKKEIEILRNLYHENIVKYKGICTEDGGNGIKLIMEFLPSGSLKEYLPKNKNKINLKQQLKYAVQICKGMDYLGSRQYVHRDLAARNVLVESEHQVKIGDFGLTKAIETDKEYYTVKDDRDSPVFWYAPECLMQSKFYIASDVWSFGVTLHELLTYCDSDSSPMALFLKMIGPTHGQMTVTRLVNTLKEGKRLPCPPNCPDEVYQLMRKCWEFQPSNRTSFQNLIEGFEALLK

[3] = system: thrombopoietin-induced STAT3 phosphorylation; details: result in words; cited from earlier work
[4] = system: IL-6-induced STAT3 phosphorylation; details: result in words; cited from earlier work

**Q.** Which IC50 [1] does the source give for `C[C@@H](O)c1nc2cnc3ccoc3c2n1[C@H]1CC[C@H](CC#N)OC1` [compound I, 2-[(2R,5S)-5-[2-[(R)-1-hydroxyethyl]furo[3,2-b]imidazo[4,5-d]pyridin-1-yl]tetrahydropyran-2-yl]acetonitrile] here?
**A.** < 0.01 µM

**Q.** What about the JAK1 inhibition [2] of the same molecule?
**A.** potent and selective JAK1 inhibitor

**Q.** What about the “inhibition of thrombopoietin-induced STAT3 phosphorylation” value [3] of the same molecule?
**A.** did not show selective inhibition

**Q.** What about the “inhibition of IL-6-induced STAT3 phosphorylation” value [4] of the same molecule?
**A.** demonstrated selective inhibition
